ChEMBL document CHEMBL1127334, “Discovery of new non-phospholipid inhibitors of the secretory phospholipases A2” (J Med Chem, 1994)

Each compound was assayed against T1, Phospholipase A2, membrane associated (Homo sapiens, UniProt P14555) (assay: Compound was tested for in vitro activity against S-phospholipase A2 (s-PLA2) isolated from human platelets).
T1 sequence (P14555 whole entry): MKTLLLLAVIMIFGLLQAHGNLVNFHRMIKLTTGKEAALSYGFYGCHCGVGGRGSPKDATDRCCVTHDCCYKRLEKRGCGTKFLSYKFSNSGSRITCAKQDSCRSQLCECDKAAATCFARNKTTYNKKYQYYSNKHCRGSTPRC

Q: Which IC50 does the source give for O=C(O)C[C@@H](CSc1ccc(Cc2ccccc2)cc1)NC(=O)CCCCCCc1ccccc1 here?
A: Its IC50 is 65 nM.

Q: With CCCCCC/C=C/CC(=O)N[C@@H](CCC(=O)O)CSc1ccc2ccccc2c1 as the compound, how does the IC50 read?
A: The IC50 was 1850 nM.

Q: For CCCCCC/C=C/CC(=O)N[C@H](CCC(=O)O)CSc1ccc2ccccc2c1, which IC50 is on record?
A: Its IC50 is 12000 nM.

Q: With CCCCCC/C=C/CC(=O)N[C@H](CSc1ccc(Cc2ccccc2)cc1)CC(=O)O as the compound, how does the IC50 read?
A: The IC50 was 3800 nM.
